{
  "source": "patent US20190290671A1",
  "about": "“HYPOLIPIDEMIC EFFECTS OF COMPOSITIONS COMPRISING BETA-GLUCOGALLIN” (priority 2018, published 2019)",
  "assay": "body weight of high fat diet fed rats",
  "assay_type": "in vivo, Albino Rat (Wistar)",
  "conditions": "HFD + 3 mg/kgbw",
  "procedure": "Performance of the Test • Feed: The animals were fed with Normal diet (9 kcal/day) and High fat diet (50 kcal/day) throughout the acclimatization and experimental period. The normal diet and High Fat diet were prepared as follows.\nBody weight of the animals was recorded in 0th, 15th, 25th, 40th, 60th and 84th day of experimental period. At 0th day, 1 ml Tail blood was collected from each animal of all the groups and serum was separated. At the end of the experimental period (84th day), the animals were sacrificed by cervical dislocation. Blood was collected and serum was separated by centrifugation and used for the analysis of biochemical parameters.\nThe test item was administered through oral route by gavage.\nExperimental Methods • Measurement of Body weight • Estimation of Cholesterol (CHOD/POD Method) • Estimation of Triglycerides (GPO/POD Method) • Estimation of HDL Cholesterol (HDL Cholesterol Direct Reagent Kit, Beacon) • Determination of LDL Cholesterol (LDL Cholesterol Direct Reagent Kit, Beacon)",
  "data": [
    {"molecule": "CC(C)c1c(C(=O)Nc2ccccc2)c(-c2ccccc2)c(-c2ccc(F)cc2)n1CC[C@@H](O)C[C@@H](O)CC(=O)O", "note": "[STATIN, Atrovastin]", "values": [
      {"measurement": "Mean Body Weight", "setting": "0th Day", "value": "108.33 ± 6.83", "unit": "g"},
      {"measurement": "Mean Body Weight", "setting": "15th Day", "value": "127.50 ± 6.90", "unit": "g"},
      {"measurement": "Mean Body Weight", "setting": "25th Day", "value": "139.16 ± 5.84", "unit": "g"},
      {"measurement": "Mean Body Weight", "setting": "40th Day", "value": "155.83 ± 7.35", "unit": "g"},
      {"measurement": "Mean Body Weight", "setting": "60th Day", "value": "165.83 ± 9.70", "unit": "g"},
      {"measurement": "Mean Body Weight", "setting": "84th Day", "value": "172.50 ± 9.35", "unit": "g"}
    ]}
  ]
}
